Data reported in patent US9938292B2 (GUANGDONG ZHONGSHENG PHARMACEUTICAL CO., LTD, priority 2014, dated 2018).
pIC50: −log10 of the molar value.

test system: Hedgehog signaling pathway; experiment: Gli-Luc luciferase reporter gene assay in C3H10T1/2/Gli-Luc cells under Shh-N stimulation; type: cell-based; details: Mus musculus, C3H 10T1/2, 24 h, luciferase RLU, read-out: biological activity: IC50 of the inhibitory activities of compounds on the hedgehog pathway
How it was run: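 C3H10T1/2 cells stably carrying a Gli-responsive luciferase reporter were stimulated with 30 nM Shh-N conditioned medium plus compound (7-point dilutions, duplicate) for 24 h at 37 °C. Luciferase luminescence read from lysates; IC50 by sigmoidal fit of RLU versus log concentration.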

pIC50, 5.30 to 6.00:
Cc1cn(-c2ccc(N3C[C@@H](C)O[C@@H](C)C3)cc2)c(=O)c2cccc(-c3ccoc3)c12 [Embodiment 43, 2-(4-((2S,6R)-2,6-dimethylmorpholino)phenyl)-5-(furan-3-yl)-4-methylisoquinolin-1(2H)-one]
COc1c(-c2ccc(N3C[C@@H](C)O[C@@H](C)C3)cc2)cnc2c(-c3nc(C#N)cs3)cccc12 [Embodiment 115, 2-(3-(4-((2S,6R)-2,6-dimethylmorpholino)phenyl)-4-methoxyquinolin-8-yl)thiazole-4-carbonitrile]
C[C@@H]1CN(c2ccc(-n3ccc4c(-c5ccc(OC(F)(F)F)cc5)cccc4c3=O)cn2)C[C@H](C)O1 [Embodiment 72]
Cc1cn(-c2ccc(N3C[C@@H](C)O[C@@H](C)C3)cc2)c(=O)c2ccnc(-c3ccc(C#N)cc3)c12 [Embodiment 81, 4-(6-(4-((2S,6R)-2,6-dimethylmorpholino)phenyl)-8-methyl-5-oxo-5,6-dihydro-2,6-naphthyridin-1-yl)benzonitrile]

pIC50, ≥ 7.30:
COc1c(N2CCN(C(=O)Nc3ccncc3)CC2)cnc2c(-c3ccc(C#N)cc3)cccc12 [Embodiment 209]
COc1c(N2CCC(N3C[C@@H](C)O[C@@H](C)C3)CC2)cnc2c(-c3ccc(C#N)cc3)cccc12 [Embodiment 227, 4-(3-(4-(2,6-dimethylmorpholino)piperidin-1-yl)-4-methoxyquinolin-8-yl) benzonitrile]
C[C@@H]1CN(c2ccc(-c3cnc4c(-c5ccc(C#N)cc5)cccc4c3C3CC3)cn2)C[C@H](C)O1 [Embodiment 134]
CCc1c(-c2ccc(N3C[C@@H](C)O[C@@H](C)C3)nc2)cnc2c(-c3ccc(C#N)cc3)cccc12 [Embodiment 133]
COc1c(N2CCN(c3ccc(C(C)(C)O)cn3)CC2)cnc2c(-c3ccc(C#N)cc3)cccc12 [Embodiment 220, 4-(3-(4-(5-(2-hydroxypropan-2-yl)pyridin-2-yl)piperazin-1-yl)-4-methoxyquinolin-8-yl)benzonitrile]
COc1c(-c2ccc(N3C[C@@H](C)N(S(C)(=O)=O)[C@@H](C)C3)nc2)cnc2c(-c3ccc(C#N)cc3)cccc12 [Embodiment 188, 4-(3-(6-(4-methylsulfonyl-3,5-dimethylpiperazin-1-yl)pyridin-3-yl)-4-methoxyquinolin-8-yl)benzonitrile]
COc1c(-c2ccc(N3C[C@@H](C)O[C@@H](C)C3)cc2F)cnc2c(-c3ccc(C#N)cc3)cccc12 [Embodiment 168, 4-(3-(4-((2S,6R)-2,6-dimethylmorpholino)-2-fluorophenyl)-4-methoxyquinolin-8-yl) benzonitrile]
COc1c(-c2ccc(N3C[C@@H](C)O[C@@H](C)C3)cc2C)cnc2c(-c3ccc(C#N)cc3)cccc12 [Embodiment 169]
COc1c(-c2ccc(N3C[C@@H](C)N(C(=O)C(C)(F)F)[C@@H](C)C3)nc2)cnc2c(-c3ccc(C#N)cc3)cccc12 [Embodiment 194]
COc1c(N2CCN(C(=O)N(C)C3CCOCC3)CC2)cnc2c(-c3ccc(C#N)cc3)cccc12 [Embodiment 213]
COc1c(-c2ccc(N3C[C@@H](C)O[C@@H](C)C3)nc2)cnc2c(-c3ccc(C(F)(F)F)cc3)cccc12 [Embodiment 159]
COc1c(-c2ccc(N3C[C@@H](C)O[C@@H](C)C3)cc2)cnc2c(-c3ccc(OC(F)(F)F)cc3)cccc12 [Embodiment 91]
COc1c(-c2ccc(N3C[C@@H](C)N(C(=O)c4cncc(C)c4)[C@@H](C)C3)cc2)cnc2c(-c3ccc(C#N)cc3)cccc12 [Embodiment 203]
COc1c(N2CC[C@@H](N3C[C@@H](C)O[C@@H](C)C3)[C@@H](F)C2)cnc2c(-c3ccc(C#N)cc3)cccc12 [Embodiment 233, 4-(3-(4-(2,6-dimethylmorpholino-4-yl)-3-fluoropiperidin-1-yl)-4-methoxyquinolin-8-yl)benzonitrile]
COc1c(N2CCN(C(=O)NC3CCCCC3)CC2)cnc2c(-c3ccc(C#N)cc3)cccc12 [Embodiment 210]
Cc1cn(-c2ccc(N3CC(C)N(C(=O)c4ccccc4)C(C)C3)cc2)c(=O)c2cccc(-c3ccc(C#N)cc3)c12 (centres unmarked) [Embodiment 27]

pIC50, 6.00 to 6.30:
Cc1cn(-c2ccc(N3C[C@@H](C)O[C@@H](C)C3)cc2)c(=O)c2nccc(-c3ccc(C#N)cc3)c12 [Embodiment 85, 4-(7-(4-((2S,6R)-2,6-dimethylmorpholino)phenyl)-5-methyl-8-oxo-7,8-dihydro-1,7-naphthyridin-4-yl)benzonitrile]
Cc1cn(-c2ccc(N3C[C@@H](C)O[C@@H](C)C3)cc2)c(=O)c2cncc(-c3ccc(C#N)cc3)c12 [Embodiment 86, 4-(7-(4-((2S,6R)-2,6-dimethylmorpholino)phenyl)-5-methyl-8-oxo-7,8-dihydro-2,7-naphthyridin-4-yl)benzonitrile]
C[C@@H]1CN(c2ccc(-n3ccc4c(-c5ccc(C#N)cc5)cccc4c3=O)cn2)C[C@H](C)O1 [Embodiment 70, 4-(2-(6-(2,6-dimethylmorpholino-4-yl)pyridin-3-yl)-1-oxo-1,2-dihydroisoquinolin-5-yl)benzonitrile]
Cc1cn(-c2ccc(N3C[C@@H](C)O[C@@H](C)C3)cc2)c(=O)c2cccc(-c3ccc(C4CC4)cc3)c12 [Embodiment 69, 5-(4-cyclopropylphenyl)-2-(4-((2R,6S)-2,6-dimethylmorpholino)phenyl)-4-methylisoquinolin-1(2H)-one]
Cc1cn(-c2ccc(N3C[C@@H](C)O[C@@H](C)C3)cc2)c(=O)c2cccc(-c3ccc(C#N)nc3)c12 [Embodiment 56]
Cc1cn(-c2ccc(N3C[C@@H](C)O[C@@H](C)C3)nc2)c(=O)c2cccc(-c3ccc(C#N)cc3)c12 [Embodiment 66]

pIC50, 6.30 to 7.00:
C[C@@H]1CN(c2ccc(-c3cnc4c(-c5ccc(C#N)cc5)cccc4c3C3CC3)c(C(=O)O)n2)C[C@H](C)O1 [Embodiment 239, 3-(8-(4-cyanophenyl)-4-cyclopropylquinolin-3-yl)-6-(2,6-dimethylmorpholino-4-yl)pyridin-2-carboxylic acid]
Cc1cn(-c2ccc(N3CC(C)N(C(=O)OC(C)C)C(C)C3)cc2)c(=O)c2cccc(-c3ccc(C#N)cc3)c12 (centres unmarked) [Embodiment 29]
Cc1cn(-c2ccc(N3C[C@@H](C)O[C@@H](C)C3)cc2)c(=O)c2cccc(-c3ccc(C#N)cc3F)c12 [Embodiment 60]
Cc1cn(-c2ccc(N3CC(C)N(CC(C)(C)O)C(C)C3)cc2)c(=O)c2cccc(-c3ccc(C#N)cc3)c12 (centres unmarked) [Embodiment 37]
COc1c(N2CCN(c3ccc(C(C)(C)O)cn3)CC2=O)cnc2c(-c3ccc(C#N)cc3)cccc12 [Embodiment 252, 4-(3-(4-(5-(2-hydroxypropan-2-yl)pyridin-2-yl)-2-oxopiperazin-1-yl-4-methoxyquinolin-8-yl))benzonitrile]
COc1c(-c2ccc(N3C[C@@H](C)O[C@@H](C)C3)cc2)cnc2c(-c3ccc(-c4ncc[nH]4)cc3)cccc12 [Embodiment 111]
Cc1cn(-c2ccc(N3CC(C)N(CC4CC4)C(C)C3)cc2)c(=O)c2cccc(-c3ccc(C#N)cc3)c12 (centres unmarked) [Embodiment 36]
Cc1cn(-c2ccc(N3CC(C)OC(C)C3)cc2)c(=O)c2cccc(-c3ccc(C#N)cc3)c12 (centres unmarked) [Embodiment 2]
CCOC(=O)N1[C@H](C)CN(c2ccc(-n3cc(C)c4c(-c5ccc(C#N)cc5)cccc4c3=O)cc2)C[C@H]1C [Embodiment 20]
COc1c(-c2ccc(N3C[C@@H](C)O[C@@H](C)C3)c(C)c2)cnc2c(-c3ccc(C#N)cc3)cccc12 [Embodiment 174]
CC(C)Oc1c(-c2ccc(N3C[C@@H](C)O[C@@H](C)C3)cc2)cnc2c(-c3ccc(C#N)cc3)cccc12 [Embodiment 144]

pIC50, 7.00 to 7.30:
COc1c(-c2ccc(N3C[C@@H](C)N(C(=O)C(C)O)[C@@H](C)C3)nc2)cnc2c(-c3ccc(C#N)cc3)cccc12 (some centres unmarked) [Embodiment 195]
COc1c(-c2ccc(N3C[C@@H](C)O[C@@H](C)C3)cc2)cnc2c(-c3ccc(C#N)cc3)nccc12 [Embodiment 148, 4-(3-(4-((2S,6R)-2,6-dimethylmorpholino)phenyl)-4-methoxy-1,7-naphthyridin-8-yl) benzonitrile]
CC(=O)N1C(C)CN(c2ccc(-n3cc(C)c4c(-c5ccc(C#N)cc5)cccc4c3=O)cc2)CC1C (centres unmarked) [Embodiment 22]
Cc1c(-c2ccc(N3C[C@@H](C)O[C@@H](C)C3)cc2)cnc2c(-c3ccc(C#N)cc3)cccc12 [Embodiment 122]
